# Read-outs that look alike come from different tables or passages of the source.
# Legend:
# cells = conditions: Homo sapiens, DLD-1, 240 h
# [1] = biological target: T1, helicase domain of the Pol θ protein (Homo sapiens, UniProt O75417); experiment: Biochemical Activity Assay (ADP Glo Assay) of Pol θ inhibitor, ATPase activity; conditions: ssDNA substrate, read-out: Biochemical assay IC50
# T1 construct: The helicase domain of the Pol θ protein was purified from insect protein expression system; made in house; host or cells: insect protein expression system
# T1 sequence (O75417 102-554 limits assumed): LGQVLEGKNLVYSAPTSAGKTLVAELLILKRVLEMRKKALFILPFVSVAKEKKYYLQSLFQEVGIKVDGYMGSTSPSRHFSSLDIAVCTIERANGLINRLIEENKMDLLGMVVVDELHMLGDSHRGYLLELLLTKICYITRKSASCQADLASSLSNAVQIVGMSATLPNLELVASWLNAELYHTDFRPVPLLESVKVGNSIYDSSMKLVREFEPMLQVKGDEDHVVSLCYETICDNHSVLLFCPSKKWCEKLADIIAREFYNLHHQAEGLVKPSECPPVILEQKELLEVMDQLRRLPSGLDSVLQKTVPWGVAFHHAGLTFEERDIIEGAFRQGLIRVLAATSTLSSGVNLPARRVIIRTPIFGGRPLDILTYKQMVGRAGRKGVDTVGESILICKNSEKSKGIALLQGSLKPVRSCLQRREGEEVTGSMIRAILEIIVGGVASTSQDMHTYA
# [2] = read-out: Cell viability assay IC50 (nM), CTG assay, CellTiter Glo, read on Day 10, cell line not given
# [3] = read-out: Cell viability assay IC50 (nM), CTG on Day 10, cell line not given (method: DLD1 and DLD1^-/- cells)
# [4] = ADP-Glo assay, ATPase activity of Pol θ helicase domain
# [5] = ADP-Glo, 60 min at room temperature
smiles,measurement,setting,value
COc1cnc(Cl)cc1-c1cc(C)ncc1C(=O)Nc1nc2ccc(-c3ccncc3Cl)nc2s1 [Example 82],IC50,cells; [2],104 nM
same,IC50,cells; [3],100 to 500 nM
same,IC50,[1]; [4],6.71 nM
same,IC50,[1]; [5],< 50 nM
COc1cnc(Cl)cc1-c1cc(C)ncc1C(=O)Nc1nc2ccc(-c3ccncc3C)nc2s1 [Example 83],IC50,cells; [2],29.3 nM
same,IC50,cells; [3],< 100 nM
same,IC50,[1]; [4],3.21 nM
same,IC50,[1]; [5],< 50 nM
COc1cnc(Cl)cc1-c1cc(C)ncc1C(=O)Nc1nc2cc(F)c(C3=CCC(O)CC3)cc2s1 (stereo not drawn) [Example 84],IC50,cells; [2],2.42 nM
same,IC50,cells; [3],< 100 nM
same,IC50,[1]; [4],1.81 nM
same,IC50,[1]; [5],< 50 nM
COc1cnc(Cl)cc1-c1cc(C)ncc1C(=O)Nc1nc2cc(F)c(-c3ccc(P(C)(C)=O)cc3)cc2s1 [Example 85],IC50,cells; [2],44.7 nM
same,IC50,cells; [3],< 100 nM
same,IC50,[1]; [4],1.81 nM
same,IC50,[1]; [5],< 50 nM
COc1cnc(Cl)cc1-c1cc(C)ncc1C(=O)Nc1nc2ncc(C3=COCCO3)cc2s1 [Example 86],IC50,cells; [2],23.3 nM
same,IC50,cells; [3],< 100 nM
same,IC50,[1]; [4],2.67 nM
same,IC50,[1]; [5],< 50 nM
"COc1cnc(Cl)cc1-c1cc(C)ncc1C(=O)Nc1nc2ncc(C3(O)CCC4(CC3)COC4)cc2s1 [Example 88, 2'-chloro-N-(6-(7-hydroxy-2-oxaspiro[3.5]non-7-yl)thiazolo[4,5-b]pyridin-2-yl)-5'-methoxy-6-methyl-[4,4'-bipyridine]-3-carboxamide]",IC50,cells; [2],52.1 nM
same,IC50,cells; [3],< 100 nM
same,IC50,[1]; [4],1.15 nM
same,IC50,[1]; [5],< 50 nM
"COc1cnc(Cl)cc1-c1cc(C)ncc1C(=O)Nc1nc2cc[nH]c2s1 [Example 90, 2'-chloro-5'-methoxy-6-methyl-N-(4H-pyrrolo[3,2-d]thiazol-2-yl)-[4,4'-bipyridine]-3-car boxamide]",IC50,cells; [3],> 1000 nM
same,IC50,[1]; [5],> 500 nM
"COc1cnc(Cl)cc1-c1cc(C)ncc1C(=O)Nc1nc2cnc(C3=CCC(O)CC3)nc2s1 (stereo not drawn) [Example 91, 2'-chloro-N-(5-(4-hydroxycyclohex-1-en-1-yl)thiazolo[5,4-d]pyrimidin-2-yl)-5'-methoxy-6-methyl-[4,4'-bipyridine]-3-carboxamide]",IC50,cells; [2],11.7 nM
same,IC50,cells; [3],< 100 nM
same,IC50,[1]; [4],1.88 nM
same,IC50,[1]; [5],< 50 nM
"COc1cnc(Cl)cc1-c1cc(C)ncc1C(=O)Nc1nc2ncc(CC(C)(C)O)cc2s1 [Example 93, 2'-chloro-N-(6-(2-hydroxy-2-methylpropyl)thiazolo[4,5-b]pyridin-2-yl)-5'-methoxy-6-me thyl-[4,4'-bipyridine]-3-carboxamide]",IC50,cells; [2],355 nM
same,IC50,cells; [3],100 to 500 nM
same,IC50,[1]; [4],5.93 nM
same,IC50,[1]; [5],< 50 nM
"COc1cnc(Cl)cc1-c1cc(C)ncc1C(=O)Nc1nc2ncc(S(C)(=O)=O)cc2s1 [Example 94, 2'-chloro-5'-methoxy-6-methyl-N-(6-(methylsulfonyl)thiazolo[4,5-b]pyridin-2-yl)-[4,4'-bipyridine]-3-carboxamide]",IC50,cells; [2],631 nM
same,IC50,cells; [3],500 to 1000 nM
same,IC50,[1]; [4],6.98 nM
same,IC50,[1]; [5],< 50 nM
"COc1cnc(Cl)cc1-c1cc(C)ncc1C(=O)Nc1nc2ncc(C(C)(C)O)cc2s1 [Example 95, 2'-chloro-N-(6-(2-hydroxypropan-2-yl)thiazolo[4,5-b]pyridin-2-yl)-5'-methoxy-6-methyl-[4,4'-bipyridine]-3-carboxamide]",IC50,cells; [2],383 nM
same,IC50,cells; [3],100 to 500 nM
same,IC50,[1]; [4],8.94 nM
same,IC50,[1]; [5],< 50 nM
"COc1cnc(Cl)cc1-c1cc(C)ncc1C(=O)Nc1nc2ncc(C(=O)N3CCC(O)CC3)cc2s1 [Example 96, 2'-chloro-N-(6-(4-hydroxypiperidin-1-carbonyl)thiazolo[4,5-b]pyridin-2-yl)-5'-methoxy-6-methyl-[4,4'-bipyridine]-3-carboxamide]",IC50,cells; [2],7640 nM
same,IC50,cells; [3],> 1000 nM
same,IC50,[1]; [4],5.58 nM
same,IC50,[1]; [5],< 50 nM
"COc1cnc(Cl)cc1-c1cc(C)ncc1C(=O)Nc1nc2ncc(N3CCC(CO)CC3)cc2s1 [Example 98, 2'-chloro-N-(6-(4-(hydroxymethyl)piperidin-1-yl)thiazolo[4,5-b]pyridin-2-yl)-5'-methox y-6-methyl-[4,4'-bipyridine]-3-carboxamide]",IC50,cells; [2],10.6 nM
same,IC50,cells; [3],< 100 nM
same,IC50,[1]; [4],2.96 nM
same,IC50,[1]; [5],< 50 nM
COc1cnc(Cl)cc1-c1cc(C)ncc1C(=O)Nc1nc2ncc(N3CCC4(CC(O)C4)C3)cc2s1 (stereo not drawn) [Example 99],IC50,cells; [2],138 nM
same,IC50,cells; [3],100 to 500 nM
same,IC50,[1]; [4],14.3 nM
same,IC50,[1]; [5],< 50 nM
COc1cnc(Cl)cc1-c1cc(C)ncc1C(=O)Nc1nc2ncc(N3CC[C@H](O)[C@H](F)C3)cc2s1 [Example 100],IC50,cells; [2],207 nM
same,IC50,cells; [3],100 to 500 nM
same,IC50,[1]; [4],2.95 nM
same,IC50,[1]; [5],< 50 nM
COc1cnc(Cl)cc1-c1cc(C)ncc1C(=O)Nc1nc2ncc(N3CC[C@@H](O)[C@H](F)C3)cc2s1 [Example 101],IC50,cells; [2],389 nM
same,IC50,cells; [3],100 to 500 nM
same,IC50,[1]; [4],3.78 nM
same,IC50,[1]; [5],< 50 nM
COc1cnc(Cl)cc1-c1cc(C)ncc1C(=O)Nc1nc2ccc(N3CCC(O)CC3)cc2s1 [Example 102],IC50,cells; [2],178 nM
same,IC50,cells; [3],< 100 nM
same,IC50,[1]; [4],8.06 nM
same,IC50,[1]; [5],< 50 nM
COc1cnc(Cl)cc1-c1cc(C)ncc1C(=O)Nc1nc2c(F)cc(N3CCC(O)CC3)cc2s1 [Example 103],IC50,cells; [2],22.4 nM
same,IC50,cells; [3],< 100 nM
same,IC50,[1]; [4],2.67 nM
same,IC50,[1]; [5],< 50 nM
COc1cnc(Cl)cc1-c1cc(C)ncc1C(=O)Nc1nc2ccc(N3CCC(O)CC3)c(F)c2s1 [Example 104],IC50,cells; [2],5.62 nM
same,IC50,cells; [3],< 100 nM
same,IC50,[1]; [4],1.56 nM
same,IC50,[1]; [5],< 50 nM
"COc1cnc(Cl)cc1-c1cc(C)ncc1C(=O)Nc1nc2ncc(-c3ccnc(N4CCN[C@H](C)C4)c3)cc2s1 [Example 105, (R)-2'-chloro-5'-methoxy-6-methyl-N-(6-(2-(3-methylpiperazin-1-yl)pyridin-4-yl)thiazolo[4,5-b]pyridin-2-yl)-[4,4'-bipyridine]-3-carboxamide]",IC50,cells; [2],152 nM
same,IC50,cells; [3],100 to 500 nM
same,IC50,[1]; [4],6.99 nM
same,IC50,[1]; [5],< 50 nM
"COc1cnc(Cl)cc1-c1cc(C)ncc1C(=O)Nc1nc2ncc(N3CCC(O)(CO)CC3)cc2s1 [Example 106, 2'-chloro-N-(6-(4-hydroxy-4-(hydroxymethyl)piperidin-1-yl)thiazolo[4,5-b]pyridin-2-yl) -5'-methoxy-6-methyl-[4,4'-bipyridine]-3-carboxamide]",IC50,cells; [2],450 nM
same,IC50,cells; [3],100 to 500 nM
same,IC50,[1]; [4],6.18 nM
same,IC50,[1]; [5],< 50 nM
"[2H]COc1cnc(Cl)cc1-c1cc(C)ncc1C(=O)Nc1nc2cnc(C3=CCC(O)CC3)cc2s1 (stereo not drawn) [Example 108, 2'-chloro-N-(6-(4-hydroxycyclohex-1-en-1-yl)thiazolo[4,5-c]pyridin-2-yl)-5'-deuteromet hoxy-6-methyl-[4,4'-bipyridine]-3-carboxamide]",IC50,cells; [2],8.79 nM
same,IC50,cells; [3],< 100 nM
same,IC50,[1]; [4],1.88 nM
same,IC50,[1]; [5],< 50 nM
"[2H]C([2H])([2H])c1cc(-c2cc(Cl)ncc2OC)c(C(=O)Nc2nc3cnc(C4=CCC(O)CC4)cc3s2)cn1 (stereo not drawn) [Example 110, 2'-chloro-N-(6-(4-hydroxycyclohex-1-en-1-yl)thiazolo[4,5-c]pyridin-2-yl)-5'-methoxy-6-(methyl-d3)-[4,4'-bipyridine]-3-carboxamide]",IC50,cells; [2],2.41 nM
same,IC50,cells; [3],< 100 nM
same,IC50,[1]; [4],2.61 nM
same,IC50,[1]; [5],< 50 nM
